Measured values as given in article PMC4806491, “The milk-derived fusion peptide, ACFP, suppresses the growth of primary human ovarian cancer cells by regulating apoptotic gene expression and signaling pathways” (BMC Cancer, 2016).
Converted amounts (≈) assume the structure as drawn. Like-named read-outs stand apart in the source and are kept apart here. Residues, ends and D or L forms follow the SMILES beside them.

System: primary ovarian cancer cells
Type: cell-based, human
Conditions: for growth of human primary ovarian cells: different concentrations, in vitro, n=12, Figure S1
Procedure: Fresh primary ovarian tumor tissues that were assessed and classified as serous ovarian adenocarcinoma (III-IV grade) according to WHO criteria were collected from 53 ovarian cancer patients who underwent initial debulking surgery at the first affiliated hospital of Anhui Medical University between June 2012 and June 2014. All patients had not received adjuvant therapies, such as chemotherapy or radiotherapy, prior to surgery. For comparison, normal ovarian glandular epithelium cells (NOGECs) were cultured from fresh primary normal ovarian tissues harvested from 7 patients with uterine fibromas, which were confirmed as negative for any neoplastic disease by pathological examination. Prior to tissue deposition, all patients signed written consent forms confirming their donation of tissue for research purposes according to the Declaration of Helsinki. This study was approved by the Anhui Medical University Review Board. Tumor or normal ovarian tissues were cut into small 1.0 mm^3 pieces, rinsed two times in phosphate buffered saline (PBS) and digested with 0.25 % trypsin in a sterile centrifuge tube at 37 °C for 30 min. To obtain a single cell suspension cell, digested tissues were filtered with a 100 μm cell strainer. Cells were collected by centrifugation at 1000 rpm for five minutes, and the cell pellet was re-suspended in Dulbecco’s modified eagle medium (DMEM) supplemented with 10 % fetal bovine serum (FBS). Cells were subsequently cultured in DMEM containing 0.1 mg/L epidermal growth factor (EGF), 0.1 mg/L insulin-like growth factor (IGF) and 0.1 mg/L beta-estradiol with 10 % FBS in 5 % CO2 at 37 °C. Once cells reached 70 to 80 % confluence, cell culture medium was drained from the flask, and cells were digested with 0.25 % collagenase II until approximately 1/3 of the cells fell to the bottom of the dish by eye using a microscope. Due to their initial shedding, most fibroblasts were eliminated by collagenase digestion. The remaining cells were cultured in 5 % CO2 at 37 °C. To determine purity, cells were analyzed using immunofluorescence of cytokeratin 7 (for ovarian cancer cells) or cytokeratin 19 (for normal ovarian epithelium cells).
Primary ovarian cancer cells were seeded into 96-well plates in sextuplicate at a starting density of 5 × 10^3 cells/well and incubated with ACFP at the concentrations: 0 (as control), 5 × 10^−6, 5 × 10^−5, 5 × 10^−4, 5 × 10^−3, 5 × 10^−2, 5 × 10^−1 and 5 g/L for 24, 48 and 72 h, respectively. Cells treated with paclitaxel at 5 × 10^−4 g/L were included in the same plate as a positive control. Cell viability was later measured using the WST-1 (water-soluble tetrazolium 1) cell viability and cytotoxicity assay kit (Beyotime, Haimen, China) according to the manufacturer’s instructions. The percent viability of cells was calculated using the formula to calculate the cell viability ratio (VR): VR (%) = (the experimental group A450nm value/control group A450nm value) × 100 %. To assess general toxicity of ACFP, viability of normal ovarian cells treated with ACFP was assayed using the same procedure. The effect of ACFP was compared with LfcinB and PGPIPN (the products of Shanghai Sangon Biological Engineering Technology, China). Each experiment was performed in two independent sets.

For `CC[C@H](C)[C@@H]1NC(=O)[C@H](CO)NC(=O)[C@@H]2CCCN2C(=O)[C@H](C)NC(=O)CNC(=O)[C@H](CC(C)C)NC(=O)[C@H](CCCCN)NC(=O)[C@H](CCCCN)NC(=O)[C@H](CCSC)NC(=O)[C@H](CCCNC(=N)N)NC(=O)[C@H](Cc2c[nH]c3ccccc23)NC(=O)[C@H](CCC(N)=O)NC(=O)[C@H](Cc2c[nH]c3ccccc23)NC(=O)[C@H](CCCNC(=N)N)NC(=O)[C@H](CCCNC(=N)N)NC(=O)[C@@H](NC(=O)[C@H](CCCCN)NC(=O)[C@@H](N)Cc2ccccc2)CSSC[C@@H](C(=O)N[C@H](C(=O)N[C@@H](CCCNC(=N)N)C(=O)N[C@@H](CCCNC(=N)N)C(=O)N[C@@H](C)C(=O)N[C@@H](Cc2ccccc2)C(=O)O)C(C)C)NC(=O)[C@H]([C@@H](C)O)NC1=O` [LfcinB], the “growth of human primary ovarian cells” value (48 h) was “decreased growth”.
For `CC[C@H](C)[C@H](NC(=O)[C@@H]1CCCN1C(=O)CNC(=O)[C@@H]1CCCN1)C(=O)N1CCC[C@H]1C(=O)N[C@@H](CC(N)=O)C(=O)O` [PGPIPN] (H-PGPIPN-OH), the “IC50, cell viability” value (24 h) was 14.5 µg/mL (≈ 24.4 µM), the “IC50, cell viability” value (48 h) was 9.3 µg/mL (≈ 15.7 µM) and the “IC50, cell viability” value (72 h) was 1.24 µg/mL (≈ 2.09 µM). The “growth of human primary ovarian cells” value (48 h) was “decreased growth”.
